Experimental data from the supplement of paper PMC10307832.

How the values were obtained:
Assay in all cases: relative viability (nuclei count vs DMSO), 5 days (fraction); higher = more cells survive
TGX 221 + Lapatinib = compound: CC1=CN2C(=O)C=C(N=C2C(=C1)C(C)NC3=CC=CC=C3)N4CCOCC4 [TGX 221] + CS(=O)(=O)CCNCc1ccc(-c2ccc3ncnc(Nc4ccc(OCc5cccc(F)c5)c(Cl)c4)c3c2)o1 [Lapatinib] (partner 2 µM)
Method in brief: (§1)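 Relative viability divides the nuclei count in treated wells by that in vehicle wells. Lung cancer cell lines were seeded in 1536-well plates, dosed by pin tool the next day, and fixed and stained after 5 days in one step with final 0.05% Triton X-100, 1% formaldehyde and 1 ug/ml Hoechst. Dosing was a single drug or a fixed anchor-drug dose plus five library-drug doses (not always all listed) in √10 steps, and values are medians of duplicate plates imaged at 4×.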

[1] = compound: O=C(CCCCCCNC(=O)c1cnc(N(c2ccccc2)c2ccccc2)nc1)NO [Ricolinostat] + N=C(N)NC(=N)NCCc1ccccc1 [Phenformin] (partner 250 µM)
Method in brief: as §1

[2] = compound: O=C(CCCCCCNC(=O)c1cnc(N(c2ccccc2)c2ccccc2)nc1)NO [Ricolinostat] + CCNC(=O)c1noc(-c2cc(C(C)C)c(O)cc2O)c1-c1ccc(CN2CCOCC2)cc1 [Luminespib] (partner 0.01 µM)
Method in brief: as §1

TGX 221 + Olaparib = compound: CC1=CN2C(=O)C=C(N=C2C(=C1)C(C)NC3=CC=CC=C3)N4CCOCC4 [TGX 221] + O=C(c1cc(Cc2n[nH]c(=O)c3ccccc23)ccc1F)N1CCN(C(=O)C2CC2)CC1 [Olaparib] (partner 8 µM)
Method in brief: as §1

NCI-H1792
relative viability (TGX 221 + Lapatinib; first compound 0.08 µM): 0.782
relative viability (TGX 221 + Lapatinib; first compound 0.253 µM): 0.983
relative viability (TGX 221 + Lapatinib; first compound 0.8 µM): 0.814
relative viability (TGX 221 + Lapatinib; first compound 2.53 µM): 0.846
relative viability (TGX 221 + Lapatinib; first compound 8 µM): 0.887
relative viability ([1]; first compound 0.08 µM): 0.29
relative viability ([1]; first compound 0.253 µM): 0.233
relative viability ([1]; first compound 0.8 µM): 0.178
relative viability ([1]; first compound 2.53 µM): 0.245
relative viability ([2]; first compound 0.08 µM): 0.297
relative viability ([2]; first compound 0.253 µM): 0.417
relative viability ([2]; first compound 0.8 µM): 0.373
relative viability ([2]; first compound 2.53 µM): 0.418
relative viability (TGX 221 + Olaparib; first compound 0.08 µM): 0.267
relative viability (TGX 221 + Olaparib; first compound 0.253 µM): 0.385
relative viability (TGX 221 + Olaparib; first compound 0.8 µM): 0.386
relative viability (TGX 221 + Olaparib; first compound 2.53 µM): 0.383
relative viability (TGX 221 + Olaparib; first compound 8 µM): 0.287
